Assay results as given in paper PMC3549755, “A comparison of the ability of rilpivirine (TMC278) and selected analogues to inhibit clinically relevant HIV-1 reverse transcriptase mutants” (Retrovirology, 2012).
Read-outs that look alike come from different tables or passages of the source.

Assays:
[1] = tested on: viral vector with K103N mutant HIV-1 RT; assay: single-round infectivity assay, luciferase reporter, K103N RT vector; assay type: cell-based; conditions: Human immunodeficiency virus 1; HOS cells, reduction of luciferase reporter activity, SD in parentheses
From the text: (§1) We examined the effects of rilpivirine and the analogues on HIV-1 replication using a previously described assay and report the concentrations at which luciferase reporter activity was reduced by half relative to uninhibited controls (EC50) with standard deviations in parentheses. In the assay, viral vectors that replicate using WT HIV reverse transcriptase or one of several mutants (L100I, K103N, V106A, E138K, Y181C, Y188L, H221Y and the double mutant K103N/Y181C) were used to infect cells in a single round assay. These mutants were chosen either because they are known NNRTI resistance mutations (L100I, K103N, Y181C, and the K103N/Y181C double mutant), they were selected in patients in rilpivirine clinical trials (E138K and H221Y), or they are positioned to make significant Van der Waals contacts with rilpivirine (V106A and Y188L). All compounds were initially screened against a panel that included at least one RT mutant from all three groups (WT, K103N, E138K, Y181C and Y188L). The cytotoxicity of the compounds was also determined to establish the therapeutic index of each of the compounds.
(§2) Procedures for virion production and cell-based assay have been reported. Briefly, all cell cultures were maintained in Dulbecco’s modified Eagle’s medium (Invitrogen, Carlsbad, CA) with 5% (v/v) fetal bovine serum, 5% newborn calf serum, penicillin (50 units/mL) and streptomycin (50 μg/mL) (Quality Biological, Gaithersburg, MD). […]. Transfected cells were incubated at 37°C for 8 hrs, washed twice with PBS, fresh media was added and the cells were returned to the incubator for 48 hrs. The pNLNgoMIVR^+ΔEnv.LUC plasmid encodes the HIV-1 genome with an Env deletion and either WT HIV-1 RT, or one of the following mutants: L100I, K103N, V106A, E138K, Y181C, Y188L, H221Y, or K103N/Y181C. Supernatants from each plate were clarified by low-speed centrifugation (3,000xg for 20 min), then treated with 200 U DNase I (Roche Applied Science, Mannheim, Germany) at room temperature for 3 hours. Viral supernatants were stored at −20°C until used.
(§3) One day prior to infection, 100 μL of human osteosarcoma (HOS) cells were added to each well of a 96-well plate at a density of 4x10^4 cells/mL. Plates were incubated overnight at 37°C. On the day of infection, 10X drug stocks were prepared by serial dilution in media from an initial 10 mM stock solution in DMSO. Cells in the 96-well plate were pre-treated by the addition of 22 μL of the appropriate drug stock and returned to the incubator for 3 hours. Thawed virus stocks were diluted 1:2 in media, then 100 μL of virus was added to the pre-treated cells, bringing the final drug concentrations to 0.1 nM to 100 nM, with DMSO-treated cells (no drug) serving as a reference. In addition, 12 wells of cells treated with media and no virus served as negative controls. Plates were returned to the incubator for an additional 42 hours, at which time the luciferase activity was determined using Steady-Lite Plus kits (PerkinElmer, Waltham, MA). Background luciferase activity, as measured for the negative controls, was subtracted from the activities measured for each infected well. Drug-free, DMSO-treated wells were normalized to 100% infectivity. Infectivity at each drug concentration was determined as a percentage of these drug-free infections. Drug concentration versus percent infectivity was plotted for each RT-inhibitor combination, and the data were fit to a four-parameter sigmoidal curve using KaleidaGraph 4.0 (Synergy Software, Reading, PA). The inflection point of each curve is reported as the IC50. All values are the mean of triplicate infections.

[2] = tested on: viral vectors that replicate using WT HIV reverse transcriptase; assay: single-round infectivity assay, luciferase reporter, vector with WT RT; assay type: cell-based, HIV-1; conditions: SD in parentheses
From the text: as §1, §2, §3

[3] = tested on: viral vector with Y181C mutant HIV-1 RT; assay: single-round infectivity assay, luciferase reporter, Y181C RT vector; assay type: cell-based; conditions: Human immunodeficiency virus 1; HOS cells, reduction of luciferase reporter activity, SD in parentheses
From the text: as §1, §2, §3

[4] = tested on: viral vector with V106A mutant HIV-1 RT; assay: single-round infectivity assay, luciferase reporter, V106A RT vector; assay type: cell-based; conditions: Human immunodeficiency virus 1; broader panel, SD in parentheses
From the text: as §1, §2, §3

[5] = tested on: viral vector with K103N/Y181C double mutant HIV-1 RT; assay: single-round infectivity assay, luciferase reporter, K103N/Y181C RT vector; assay type: cell-based; conditions: for EC50: Human immunodeficiency virus 1, broader panel, SD in parentheses
From the text: as §1, §2, §3

[6] = cytotoxicity assay (ATP-Lite cell viability); assay type: cell-based, human; conditions: human, HOS cells, 48 hours, SD in parentheses
Experimental: (§4) One day prior to treatment, HOS cells were prepared in 96-well plates as described for the infectivity assays, except that 12 wells per plate were treated with cell-free media to serve as negative controls. The following day, serial dilutions of drug stocks were prepared in media from 10 mM stocks in DMSO. Each well received 11 μL of the appropriate drug concentration or DMSO-treated, drug-free media. Final drug concentrations ranged from 0.5 μM to 300 μM. The drug-free wells served as references. Plates were then incubated at 37°C for 48 hours. Cell viability was determined using luciferase reporter ATP-Lite kits (PerkinElmer). As described for the infectivity assays, drug-free reference wells were normalized to 100%, and viabilities at different drug concentrations were determined as a percentage of these references. Data were plotted and analyzed in the same manner as the IC50 data, with the inflection points of the curves reported as CC50.

HOS cells = assay: cytotoxicity assay (ATP-Lite cell viability); assay type: cell-based, human; conditions: for CC50: HOS cells, 48 hours, SD in parentheses; for Therapeutic Index (T.I.): ratio of CC50/EC50 (WT)
Experimental: as §4

[7] = tested on: viral vector with E138K mutant HIV-1 RT; assay: single-round infectivity assay, luciferase reporter, E138K RT vector; assay type: cell-based; conditions: Human immunodeficiency virus 1; HOS cells, reduction of luciferase reporter activity, SD in parentheses
From the text: as §1, §2, §3

[8] = tested on: viral vector with H221Y mutant HIV-1 RT; assay: single-round infectivity assay, luciferase reporter, H221Y RT vector; assay type: cell-based; conditions: Human immunodeficiency virus 1; broader panel, SD in parentheses
From the text: as §1, §2, §3

[9] = tested on: viral vector with L100I mutant HIV-1 RT; assay: single-round infectivity assay, luciferase reporter, L100I RT vector; assay type: cell-based; conditions: Human immunodeficiency virus 1; broader panel, SD in parentheses
From the text: as §1, §2, §3

[10] = tested on: viral vector with Y188L mutant HIV-1 RT; assay: single-round infectivity assay, luciferase reporter, Y188L RT vector; assay type: cell-based; conditions: Human immunodeficiency virus 1; HOS cells, reduction of luciferase reporter activity, SD in parentheses
From the text: as §1, §2, §3

[11] = Human immunodeficiency virus 1, broader panel table, read-out: EC50 WT (Table S1)
[12] = Human immunodeficiency virus 1, HOS, HOS cells, reduction of luciferase reporter activity, read-out: EC50 WT

Work on `Cc1cc(/C=C/C#N)cc(C)c1-n1cnc2cnc(Nc3ccc(C#N)cc3)nc21` [Analogue 27] yielded an EC50 [1] of 0.4 nM, an EC50 [2, 11] of 0.2 nM and an EC50 [3] of 1.5 nM. For the same compound, the EC50 [4] was 0.2 nM, the EC50 [5] was 72 nM and the CC50 at 48 h [6] was 42000 nM. For the same compound, the CC50 (HOS cells) was greater than 38000 nM, the “Therapeutic Index (T.I.)” value (HOS cells) was 2.1x10^5 and the EC50 [7] was 0.7 nM. It also gave an EC50 [8] of 0.4 nM, an EC50 [9] of 0.2 nM and an EC50 [10] of 9.6 ± 2.2 nM.

For `Cc1cc(/C=C/C#N)cc(C)c1Nc1ncc([N+](=O)[O-])c(Nc2ccc(C#N)cc2)n1` [Analogue 8], the EC50 [1] was 1 nM, the EC50 [2, 11] was 0.9 nM and the EC50 [3] was 5.3 nM. For the same compound, the EC50 [4] was 0.3 nM, the EC50 [5] was 86 nM and the “Therapeutic Index (T.I.)” value (HOS cells) was 1.0x10^5. For the same compound, the EC50 [7] was 4.9 nM, the EC50 [8] was 2.6 nM and the EC50 [9] was 0.2 nM. It also gave an EC50 [10] of 13 nM.

Work on `Cc1cc(/C=C/C#N)cc(C)c1Nc1nc(Nc2cc(F)cc(F)c2)c2nc[nH]c2n1` [Analogue 18] yielded an EC50 [1] of 4.9 nM, an EC50 [2, 12] of 9.3 nM and an EC50 [3] of 56 nM. The CC50 at 48 h [6] was 13000 nM, the “Therapeutic Index (T.I.)” value (HOS cells) was 1.4x10^3 and the EC50 [7] was 28 nM. It also gave an EC50 [10] greater than 100 nM.

Work on `Cc1cc(/C=C/C#N)cc(C)c1Nc1nc(Nc2ccc(C(F)(F)F)cc2)c2nc[nH]c2n1` [Analogue 15] yielded an EC50 [1] of 0.9 nM, an EC50 [2, 12] of 1.5 nM and an EC50 [3] of 3.3 nM. For the same compound, the CC50 at 48 h [6] was 17000 nM, the “Therapeutic Index (T.I.)” value (HOS cells) was 1.1x10^4 and the EC50 [7] was 4.7 nM. For the same compound, the EC50 [10] was 17 nM.

`Cc1cc(/C=C/C#N)cc(C)c1Nc1nc(Nc2ccc3c(c2)OCO3)c2nc[nH]c2n1` [Analogue 24] showed an EC50 [1] of 0.6 nM, an EC50 [2, 12] of 0.1 nM and an EC50 [3] of 3 nM. The CC50 at 48 h [6] was 19000 nM, the “Therapeutic Index (T.I.)” value (HOS cells) was 1.9x10^5 and the EC50 [7] was 1.6 nM. It also gave an EC50 [10] of 23 nM.

With `Cc1cc(/C=C/C#N)cc(C)c1Nc1nc(Nc2ccc3ncsc3c2)c2nc[nH]c2n1` [Analogue 20] the EC50 [1] was 0.1 nM, the EC50 [2, 11] was 0.2 nM and the EC50 [3] was 1 nM. For the same compound, the EC50 [4] was 2.1 nM, the EC50 [5] was 60 nM and the CC50 at 48 h [6] was 2000 nM. For the same compound, the “Therapeutic Index (T.I.)” value (HOS cells) was 1.0x10^4, the EC50 [7] was 0.8 nM and the EC50 [8] was 1.1 nM. The EC50 [9] was 0.2 nM and the EC50 [10] was 19 nM.

In the case of `COc1ccc(Nc2nc(Nc3c(C)cc(/C=C/C#N)cc3C)nc3[nH]cnc23)cc1` [Analogue 16], the EC50 [1] is reported as 0.2 nM, the EC50 ([2]; HOS cells, reduction of luciferase reporter activity, read-out: EC50 WT) is reported as 0.4 nM and the EC50 [2, 12] is reported as 0.2 nM. For the same compound, the EC50 [3] was 2.3 nM, the CC50 at 48 h [6] was 12000 nM and the “Therapeutic Index (T.I.)” value (HOS cells) was 6.0x10^4. For the same compound, the EC50 [7] was 1.1 nM and the EC50 [10] was 29 nM.

`Cc1cc(/C=C/C#N)cc(C)c1Nc1nc(Nc2ccc3scnc3c2)c2nc[nH]c2n1` [Analogue 21] showed an EC50 [1] of 0.6 nM, an EC50 [2, 11] of 0.1 nM and an EC50 [3] of 1 nM. For the same compound, the EC50 [4] was 4.6 nM, the EC50 [5] was greater than 100 nM and the “fold resistance / loss of potency against K103N/Y181C double mutant” value ([5]; relative to WT) was greater than 1000 fold. The CC50 at 48 h [6] was 38000 nM, the CC50 (HOS cells) was greater than 38000 nM and the “Therapeutic Index (T.I.)” value (HOS cells) was 3.8x10^5. The EC50 [7] was 1.5 nM, the EC50 [8] was 0.6 nM and the EC50 [9] was 0.6 nM. It also gave an EC50 [10] of 4.4 nM.
